In ChEMBL document CHEMBL5696442, “Discovery of type II inhibitors of TGFβ-activated kinase 1 (TAK1) and mitogen-activated protein kinase kinase kinase kinase 2 (MAP4K2)” (J Med Chem, 2015):
The source made the active and inactive calls. The calls are words filed in the database; no cut-off is given here.

Key:
[1] = biological target: Cyclin-dependent kinase 7 (Homo sapiens) (UniProt P50613); assay: Inhibition of CDK7 (unknown origin) at 10 uM by Ambit Kinomescan binding assay relative to control
Chain of Cyclin-dependent kinase 7 (Homo sapiens) (P50613 whole entry): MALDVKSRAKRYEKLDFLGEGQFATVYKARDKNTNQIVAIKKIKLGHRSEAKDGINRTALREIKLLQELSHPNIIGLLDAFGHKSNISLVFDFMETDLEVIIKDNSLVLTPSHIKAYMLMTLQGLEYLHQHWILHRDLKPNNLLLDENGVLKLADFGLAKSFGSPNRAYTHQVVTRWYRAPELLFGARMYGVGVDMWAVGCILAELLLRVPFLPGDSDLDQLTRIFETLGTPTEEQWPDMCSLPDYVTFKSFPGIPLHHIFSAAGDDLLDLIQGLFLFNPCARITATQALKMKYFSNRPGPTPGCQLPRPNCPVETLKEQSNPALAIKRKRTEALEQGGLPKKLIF

[2] = system: Receptor-type tyrosine-protein kinase FLT3 (Homo sapiens), P36888 [UNDEFINED MUTATION]; assay: Inhibition of FLT3 ITD mutant (unknown origin) at 10 uM by Ambit Kinomescan binding assay relative to control
Chain of Receptor-type tyrosine-protein kinase FLT3 (Homo sapiens), P36888 [UNDEFINED MUTATION] (P36888 whole entry, looked up, change not shown): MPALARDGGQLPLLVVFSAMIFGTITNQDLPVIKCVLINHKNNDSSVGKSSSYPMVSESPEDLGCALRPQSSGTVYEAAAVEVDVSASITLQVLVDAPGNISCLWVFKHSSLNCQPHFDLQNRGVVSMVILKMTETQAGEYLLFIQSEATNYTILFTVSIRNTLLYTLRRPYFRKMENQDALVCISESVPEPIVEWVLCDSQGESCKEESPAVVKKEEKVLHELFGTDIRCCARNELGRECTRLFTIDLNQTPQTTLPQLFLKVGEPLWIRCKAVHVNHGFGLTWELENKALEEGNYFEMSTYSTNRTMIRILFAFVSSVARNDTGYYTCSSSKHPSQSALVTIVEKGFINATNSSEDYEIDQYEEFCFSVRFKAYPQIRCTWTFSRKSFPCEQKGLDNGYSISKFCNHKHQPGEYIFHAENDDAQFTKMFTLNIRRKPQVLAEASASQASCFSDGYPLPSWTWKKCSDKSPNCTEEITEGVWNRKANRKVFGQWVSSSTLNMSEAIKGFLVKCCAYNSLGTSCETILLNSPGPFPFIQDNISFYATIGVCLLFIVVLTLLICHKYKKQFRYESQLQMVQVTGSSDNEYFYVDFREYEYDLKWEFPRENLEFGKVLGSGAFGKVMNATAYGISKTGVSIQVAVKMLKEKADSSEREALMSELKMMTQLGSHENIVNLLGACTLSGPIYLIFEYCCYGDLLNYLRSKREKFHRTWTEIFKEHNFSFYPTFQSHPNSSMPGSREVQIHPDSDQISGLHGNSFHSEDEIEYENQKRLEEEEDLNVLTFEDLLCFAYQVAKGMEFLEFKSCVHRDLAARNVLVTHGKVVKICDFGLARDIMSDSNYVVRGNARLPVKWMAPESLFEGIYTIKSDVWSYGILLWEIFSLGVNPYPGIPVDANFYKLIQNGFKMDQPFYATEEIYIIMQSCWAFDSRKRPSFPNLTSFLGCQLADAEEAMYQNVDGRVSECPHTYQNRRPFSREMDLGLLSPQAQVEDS

[3] = biological target: T1, NUAK family SNF1-like kinase 2 (Homo sapiens) (UniProt Q9H093); assay: Inhibition of SNARK (unknown origin) at 10 uM by Ambit Kinomescan binding assay
T1 sequence (whole entry): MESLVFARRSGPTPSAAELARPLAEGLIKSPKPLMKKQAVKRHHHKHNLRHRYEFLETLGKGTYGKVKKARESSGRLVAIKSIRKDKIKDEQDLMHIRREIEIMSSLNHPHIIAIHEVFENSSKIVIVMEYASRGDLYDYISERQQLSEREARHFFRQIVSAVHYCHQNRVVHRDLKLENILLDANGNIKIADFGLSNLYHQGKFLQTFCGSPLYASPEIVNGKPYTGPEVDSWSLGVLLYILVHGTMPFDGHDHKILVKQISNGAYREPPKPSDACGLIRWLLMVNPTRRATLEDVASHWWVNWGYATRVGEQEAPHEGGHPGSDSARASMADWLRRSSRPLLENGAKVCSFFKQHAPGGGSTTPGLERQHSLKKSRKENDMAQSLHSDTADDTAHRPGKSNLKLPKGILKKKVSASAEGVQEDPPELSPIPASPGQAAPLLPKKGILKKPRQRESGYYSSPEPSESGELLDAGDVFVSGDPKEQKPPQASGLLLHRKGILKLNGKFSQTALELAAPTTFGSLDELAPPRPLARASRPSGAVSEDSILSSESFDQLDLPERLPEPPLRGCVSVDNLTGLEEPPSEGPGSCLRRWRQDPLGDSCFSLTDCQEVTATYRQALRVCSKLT

[4] = biological target: T2, Mitogen-activated protein kinase kinase kinase 6 (Homo sapiens) (UniProt O95382); assay: Inhibition of MAP3K6 Lys1 labeling site harbouring IAIKEIPERDSR in human A-375 cells at 5 uM by KiNativ Profiling analysis relative to control; format: cell-based
T2 sequence (whole entry): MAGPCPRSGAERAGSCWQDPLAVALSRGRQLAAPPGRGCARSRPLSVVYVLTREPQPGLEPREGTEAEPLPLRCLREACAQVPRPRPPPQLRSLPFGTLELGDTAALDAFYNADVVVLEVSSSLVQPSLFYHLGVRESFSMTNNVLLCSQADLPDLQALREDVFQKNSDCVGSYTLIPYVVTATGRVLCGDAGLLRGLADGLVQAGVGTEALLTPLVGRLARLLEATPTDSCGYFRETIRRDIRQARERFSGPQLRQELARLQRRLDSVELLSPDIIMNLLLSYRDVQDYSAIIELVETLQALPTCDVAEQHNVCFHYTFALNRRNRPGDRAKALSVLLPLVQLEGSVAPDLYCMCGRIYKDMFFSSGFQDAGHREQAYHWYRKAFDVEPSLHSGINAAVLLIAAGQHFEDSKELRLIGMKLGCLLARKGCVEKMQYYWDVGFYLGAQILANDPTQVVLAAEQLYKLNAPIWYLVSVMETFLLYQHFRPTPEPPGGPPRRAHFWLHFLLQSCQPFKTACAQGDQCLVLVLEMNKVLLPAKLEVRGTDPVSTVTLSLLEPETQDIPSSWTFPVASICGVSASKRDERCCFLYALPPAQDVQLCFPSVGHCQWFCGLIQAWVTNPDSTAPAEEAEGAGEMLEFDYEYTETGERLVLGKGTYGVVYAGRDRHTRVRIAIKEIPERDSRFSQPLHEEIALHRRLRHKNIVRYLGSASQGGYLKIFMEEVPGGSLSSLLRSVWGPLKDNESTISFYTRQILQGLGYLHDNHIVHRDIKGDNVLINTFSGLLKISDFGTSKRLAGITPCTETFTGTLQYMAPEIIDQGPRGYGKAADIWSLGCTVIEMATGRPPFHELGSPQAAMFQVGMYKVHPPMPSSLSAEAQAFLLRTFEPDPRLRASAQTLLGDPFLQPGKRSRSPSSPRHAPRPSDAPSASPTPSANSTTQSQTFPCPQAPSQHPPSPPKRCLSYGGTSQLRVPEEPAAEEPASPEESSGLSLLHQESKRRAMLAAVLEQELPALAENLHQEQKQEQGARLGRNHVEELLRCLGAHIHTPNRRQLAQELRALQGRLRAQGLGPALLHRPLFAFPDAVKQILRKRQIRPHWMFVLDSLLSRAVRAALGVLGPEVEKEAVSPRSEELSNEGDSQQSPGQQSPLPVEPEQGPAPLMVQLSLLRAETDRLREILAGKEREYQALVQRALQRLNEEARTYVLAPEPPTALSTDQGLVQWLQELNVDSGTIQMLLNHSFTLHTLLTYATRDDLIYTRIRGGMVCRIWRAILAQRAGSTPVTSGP

[5] = biological target: Casein kinase I isoform delta (Homo sapiens) (UniProt P48730); assay: Inhibition of CK1delta Lys2 labeling site in human A-375 cells at 0.5 uM by KiNativ Profiling analysis relative to control; format: cell-based
Chain of Casein kinase I isoform delta (Homo sapiens) (P48730 whole entry, looked up, canonical isoform): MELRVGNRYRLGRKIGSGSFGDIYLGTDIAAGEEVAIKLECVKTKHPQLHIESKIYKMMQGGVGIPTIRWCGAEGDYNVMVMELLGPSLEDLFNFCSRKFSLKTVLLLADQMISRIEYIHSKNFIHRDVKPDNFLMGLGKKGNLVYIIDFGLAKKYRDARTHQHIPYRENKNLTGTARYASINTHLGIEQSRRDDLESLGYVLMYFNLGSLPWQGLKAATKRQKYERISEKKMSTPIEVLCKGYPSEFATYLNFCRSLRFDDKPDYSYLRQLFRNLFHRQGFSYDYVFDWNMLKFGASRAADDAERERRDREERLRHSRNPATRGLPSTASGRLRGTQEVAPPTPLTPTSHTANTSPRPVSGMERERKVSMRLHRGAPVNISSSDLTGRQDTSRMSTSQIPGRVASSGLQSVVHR

[6] = biological target: T3, Mitogen-activated protein kinase kinase kinase 2 (Homo sapiens) (UniProt Q9Y2U5); assay: Inhibition of MAP3K2 Lys2 labeling site in human A-375 cells at 0.05 uM by KiNativ Profiling analysis relative to control; format: cell-based
T3 sequence (whole entry): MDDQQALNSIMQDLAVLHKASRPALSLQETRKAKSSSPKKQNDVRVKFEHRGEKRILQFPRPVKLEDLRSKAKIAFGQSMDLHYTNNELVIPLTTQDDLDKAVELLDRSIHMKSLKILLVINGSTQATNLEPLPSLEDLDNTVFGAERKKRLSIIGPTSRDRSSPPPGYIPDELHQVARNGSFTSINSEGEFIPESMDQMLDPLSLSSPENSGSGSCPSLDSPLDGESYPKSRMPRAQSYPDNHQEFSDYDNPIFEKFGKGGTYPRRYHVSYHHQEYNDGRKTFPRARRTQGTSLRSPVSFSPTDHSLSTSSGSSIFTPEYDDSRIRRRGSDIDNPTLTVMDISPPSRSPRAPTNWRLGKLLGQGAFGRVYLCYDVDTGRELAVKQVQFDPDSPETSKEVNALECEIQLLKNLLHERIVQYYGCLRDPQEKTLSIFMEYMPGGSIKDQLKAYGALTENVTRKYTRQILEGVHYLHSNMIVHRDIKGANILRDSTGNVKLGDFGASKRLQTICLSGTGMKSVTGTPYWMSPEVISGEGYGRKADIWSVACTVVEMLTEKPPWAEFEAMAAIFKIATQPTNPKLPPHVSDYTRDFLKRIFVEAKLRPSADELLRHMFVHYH

[7] = biological target: eIF-2-alpha kinase GCN2 (Homo sapiens) (UniProt Q9P2K8); assay: Inhibition of GCN2 K2 labeling site in human Huh-7 cells at 1 uM by KiNativ Profiling analysis relative to control; format: cell-based
Chain of eIF-2-alpha kinase GCN2 (Homo sapiens) (Q9P2K8 whole entry): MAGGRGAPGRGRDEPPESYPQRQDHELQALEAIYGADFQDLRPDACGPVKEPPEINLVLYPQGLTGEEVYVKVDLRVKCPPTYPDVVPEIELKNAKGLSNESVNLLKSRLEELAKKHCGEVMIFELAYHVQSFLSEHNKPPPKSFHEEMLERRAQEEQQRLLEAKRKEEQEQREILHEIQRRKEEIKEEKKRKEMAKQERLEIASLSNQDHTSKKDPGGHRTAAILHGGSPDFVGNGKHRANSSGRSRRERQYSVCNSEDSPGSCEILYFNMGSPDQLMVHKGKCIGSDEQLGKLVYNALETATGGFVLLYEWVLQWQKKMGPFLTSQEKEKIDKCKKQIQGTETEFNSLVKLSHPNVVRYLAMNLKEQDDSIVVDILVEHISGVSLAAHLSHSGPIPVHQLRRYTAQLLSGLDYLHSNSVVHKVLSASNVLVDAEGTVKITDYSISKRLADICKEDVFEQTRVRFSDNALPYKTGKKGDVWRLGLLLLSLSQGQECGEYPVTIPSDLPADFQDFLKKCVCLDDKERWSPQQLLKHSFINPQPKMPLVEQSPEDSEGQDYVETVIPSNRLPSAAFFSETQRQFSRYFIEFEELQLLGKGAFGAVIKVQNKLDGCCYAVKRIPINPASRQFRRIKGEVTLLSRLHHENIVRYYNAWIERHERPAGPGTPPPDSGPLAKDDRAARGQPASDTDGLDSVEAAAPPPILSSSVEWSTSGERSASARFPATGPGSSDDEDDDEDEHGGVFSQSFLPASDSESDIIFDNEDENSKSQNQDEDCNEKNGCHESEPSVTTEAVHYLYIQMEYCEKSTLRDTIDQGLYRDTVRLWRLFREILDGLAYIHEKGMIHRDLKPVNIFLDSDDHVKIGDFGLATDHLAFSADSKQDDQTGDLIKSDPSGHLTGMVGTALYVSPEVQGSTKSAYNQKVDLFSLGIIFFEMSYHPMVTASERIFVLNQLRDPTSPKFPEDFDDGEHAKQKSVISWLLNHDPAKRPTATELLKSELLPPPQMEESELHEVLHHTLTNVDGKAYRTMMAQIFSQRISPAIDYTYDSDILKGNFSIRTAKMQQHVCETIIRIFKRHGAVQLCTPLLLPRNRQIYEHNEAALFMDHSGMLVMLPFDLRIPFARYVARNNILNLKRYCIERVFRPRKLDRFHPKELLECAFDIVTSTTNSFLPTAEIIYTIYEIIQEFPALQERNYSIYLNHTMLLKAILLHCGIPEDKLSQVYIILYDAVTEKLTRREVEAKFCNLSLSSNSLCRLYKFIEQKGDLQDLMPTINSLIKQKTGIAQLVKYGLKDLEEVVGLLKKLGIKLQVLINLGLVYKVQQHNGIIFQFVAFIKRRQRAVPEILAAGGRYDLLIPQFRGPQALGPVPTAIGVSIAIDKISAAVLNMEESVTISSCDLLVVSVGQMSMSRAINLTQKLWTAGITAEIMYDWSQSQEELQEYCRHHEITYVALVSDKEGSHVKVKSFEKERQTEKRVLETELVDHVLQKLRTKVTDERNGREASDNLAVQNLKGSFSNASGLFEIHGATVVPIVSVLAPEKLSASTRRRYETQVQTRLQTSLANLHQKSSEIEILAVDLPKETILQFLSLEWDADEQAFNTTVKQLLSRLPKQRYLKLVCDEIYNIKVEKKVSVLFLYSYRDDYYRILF

For `CCN1CCN(Cc2ccc(NC(=O)c3ccc(C)c(Oc4ccnc5[nH]ccc45)c3)cc2C(F)(F)F)CC1`, the inhibition [1] was 2.4%, the inhibition [2] was 0.7% and the inhibition [3] was “inactive”. It also gave an inhibition [4] of -3.2%, an inhibition [5] of 3.3% and an inhibition [6] of 7.6%. For the same molecule, the inhibition [7] was 12%.
